Reference: patent US20150105252A1, “SUBSTITUTED PYRAZOLES AS HERBICIDES” (E I DU PONT DE NEMOURS AND COMPANY, priority 2013, published 2015)

Legend:
wheat = experiment: Test A preemergence; assay type: in vivo, Triticum aestivum; conditions: preemergence
Outline: (§1)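 Ratings express plant response from 0 (no effect) to 100 (complete control), judged visually against untreated controls after approximately 10 days in the greenhouse. Preemergence applications were made as directed soil sprays onto seeded loam–sand mix, and postemergence applications onto 2–10 cm plants at one- to two-leaf stage.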

corn = experiment: Test A preemergence; assay type: in vivo, Zea mays; conditions: preemergence
Outline: as §1

barnyardgrass = experiment: Test A postemergence; assay type: in vivo, Echinochloa crus-galli
Outline: as §1

foxtail, giant = experiment: Test A postemergence; assay type: in vivo, Setaria faberii
Outline: as §1

morningglory [1] = experiment: Test A postemergence; assay type: in vivo, Ipomoea spp.
Outline: as §1

pigweed [2] = experiment: Test A postemergence; assay type: in vivo, Amaranthus retroflexus
Outline: as §1

sedge, umbrella = experiment: Test B flood; assay type: in vivo, Cyperus difformis; conditions: 250 g ai/ha, visual rating on 0 to 100 scale (0 no effect, 100 complete control), 13 to 15 days
Outline: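 Paddy-water application: seedlings at 2-leaf stage, flood depth 3 cm maintained for the test duration. Evaluation after 13–15 days in the greenhouse by eye relative to controls; 0–100 scale.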

blackgrass = experiment: Test C preemergence; assay type: in vivo, Alopecurus myosuroides; conditions: preemergence; for Plant response rating, Blackgrass: 125 g ai/ha, scale 0 to 100, 0 = no effect, 100 = complete control
Outline: (§2)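 Herbicidal effect is expressed as percent visual control (0–100) judged against untreated plants 13 to 15 days after treatment in the greenhouse. Preemergence pots contained seeds in a soil–sand blend; postemergence plants, 2–18 cm tall, grew in peat-based planting medium.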

morningglory [3] = experiment: Test C preemergence; assay type: in vivo, Ipomoea coccinea; conditions: preemergence; for Plant response rating, Morningglory: 125 g ai/ha, scale 0 to 100, 0 = no effect, 100 = complete control
Outline: as §2

nutsedge, yellow = experiment: Test C preemergence; assay type: in vivo, Cyperus esculentus; conditions: preemergence; for Plant response rating, Nutsedge, Yellow: 125 g ai/ha, scale 0 to 100, 0 = no effect, 100 = complete control
Outline: as §2

pigweed [4] = experiment: Test C preemergence; assay type: in vivo, Amaranthus retroflexus; conditions: preemergence; for Plant response rating, Pigweed: 125 g ai/ha, scale 0 to 100, 0 = no effect, 100 = complete control
Outline: as §2

soybean = experiment: Test C preemergence; assay type: in vivo, Glycine max; conditions: preemergence; for Plant response rating, Soybean: 125 g ai/ha, scale 0 to 100, 0 = no effect, 100 = complete control
Outline: as §2

velvetleaf = experiment: Test C preemergence; assay type: in vivo, Abutilon theophrasti; conditions: preemergence; for Plant response rating, Velvetleaf: 125 g ai/ha, scale 0 to 100, 0 = no effect, 100 = complete control
Outline: as §2

[5] = 125 g ai/ha, visual injury, 0 to 100 scale, approx. 10 days
[6] = 500 g ai/ha, visual injury after approx. 10 days, 0 to 100 scale (0 no effect, 100 complete control)
[7] = Postemergence, 500 g ai/ha, 0 to 100 scale (0 no effect, 100 complete control)
[8] = postemergence, 125 g ai/ha, about 10 days, visual rating on 0 to 100 scale (0 no effect, 100 complete control)
[9] = 31 g ai/ha, visual rating, scale 0 to 100 (0 no effect, 100 complete control), 13 to 15 days
[10] = 62 g ai/ha, scale 0 to 100 (0 no effect, 100 complete control), 13 to 15 days
[11] = 250 g ai/ha, scale 0 to 100, 0 is no effect, 100 is complete control
[12] = 125 g ai/ha, visual injury approx. 10 days after treatment

SMILES: O=C(NCC(F)(F)F)c1cc(CCCl)n(Cc2ccnc(C(F)(F)F)c2)n1 [Compound 143]
- Wheat plant response rating (wheat; [5]): 70
- Wheat plant response rating (wheat; [6]): 100
- Corn plant response rating (corn; [5]): 50
- Corn plant response rating (corn; [6]): 80
- Barnyardgrass plant response rating (barnyardgrass; [7]): 90
- Barnyardgrass plant response rating (barnyardgrass; [8]): 60
- Foxtail, Giant plant response rating (foxtail, giant; [7]): 90
- Foxtail, Giant plant response rating (foxtail, giant; [8]): 90
- Morningglory plant response rating (morningglory [1]; [7]): 100
- Morningglory plant response rating (morningglory [1]; [8]): 40
- Pigweed plant response rating (pigweed [2]; [7]): 100
- Pigweed plant response rating (pigweed [2]; [8]): 100
- Plant response rating, Sedge, Umbrella (sedge, umbrella): 95
- Blackgrass plant response rating (blackgrass; [9]): 85
- Blackgrass plant response rating (blackgrass; [10]): 85
- Plant response rating, Blackgrass (blackgrass; 13 to 15 days): 90
- Blackgrass plant response rating (blackgrass; [11]): 90
- Morningglory plant response rating (morningglory [3]; [9]): 100
- Morningglory plant response rating (morningglory [3]; [10]): 100
- Plant response rating, Morningglory (morningglory [3]; 13 to 15 days): 100
- Morningglory plant response rating (morningglory [3]; [11]): 100
- Nutsedge, Yellow plant response rating (nutsedge, yellow; [9]): 30
- Nutsedge, Yellow plant response rating (nutsedge, yellow; [10]): 40
- Plant response rating, Nutsedge, Yellow (nutsedge, yellow; 13 to 15 days): 80
- Nutsedge, Yellow plant response rating (nutsedge, yellow; [11]): 90
- Pigweed plant response rating (pigweed [4]; [9]): 100
- Pigweed plant response rating (pigweed [4]; [10]): 100
- Plant response rating, Pigweed (pigweed [4]; 13 to 15 days): 100
- Pigweed plant response rating (pigweed [4]; [11]): 100
- Soybean plant response rating (soybean; [9]): 35
- Soybean plant response rating (soybean; [10]): 85
- Plant response rating, Soybean (soybean; 13 to 15 days): 98
- Soybean plant response rating (soybean; [11]): 98
- Velvetleaf plant response rating (velvetleaf; [9]): 100
- Velvetleaf plant response rating (velvetleaf; [10]): 98
- Plant response rating, Velvetleaf (velvetleaf; 13 to 15 days): 100
- Velvetleaf plant response rating (velvetleaf; [11]): 100

SMILES: CCCNC(=O)c1cc(CCCl)n(Cc2ccnc(C(F)(F)F)c2)n1 [Compound 145]
- Wheat plant response rating (0 to 100 scale) (wheat; [12]): 40
- Wheat plant response rating (wheat; [6]): 100
- Corn plant response rating (0 to 100 scale) (corn; [12]): 30
- Corn plant response rating (corn; [6]): 60
- Barnyardgrass plant response rating (barnyardgrass; [7]): 90
- Barnyardgrass plant response rating (barnyardgrass; [8]): 60
- Foxtail, Giant plant response rating (foxtail, giant; [7]): 90
- Foxtail, Giant plant response rating (foxtail, giant; [8]): 90
- Morningglory plant response rating (morningglory [1]; [7]): 100
- Morningglory plant response rating (morningglory [1]; [8]): 80
- Pigweed plant response rating (pigweed [2]; [7]): 100
- Pigweed plant response rating (pigweed [2]; [8]): 100
- Plant response rating, Sedge, Umbrella (sedge, umbrella): 95
- Blackgrass plant response rating (blackgrass; [9]): 70
- Blackgrass plant response rating (blackgrass; [10]): 85
- Plant response rating, Blackgrass (blackgrass; 13 to 15 days): 90
- Blackgrass plant response rating (blackgrass; [11]): 90
- Morningglory plant response rating (morningglory [3]; [9]): 80
- Morningglory plant response rating (morningglory [3]; [10]): 100
- Plant response rating, Morningglory (morningglory [3]; 13 to 15 days): 100
- Morningglory plant response rating (morningglory [3]; [11]): 100
- Nutsedge, Yellow plant response rating (nutsedge, yellow; [9]): 10
- Nutsedge, Yellow plant response rating (nutsedge, yellow; [10]): 75
- Plant response rating, Nutsedge, Yellow (nutsedge, yellow; 13 to 15 days): 60
- Nutsedge, Yellow plant response rating (nutsedge, yellow; [11]): 90
- Pigweed plant response rating (pigweed [4]; [9]): 100
- Pigweed plant response rating (pigweed [4]; [10]): 100
- Plant response rating, Pigweed (pigweed [4]; 13 to 15 days): 100
- Pigweed plant response rating (pigweed [4]; [11]): 100
- Soybean plant response rating (soybean; [9]): 20
- Soybean plant response rating (soybean; [10]): 70
- Plant response rating, Soybean (soybean; 13 to 15 days): 85
- Soybean plant response rating (soybean; [11]): 95
- Velvetleaf plant response rating (velvetleaf; [9]): 90
- Velvetleaf plant response rating (velvetleaf; [10]): 100
- Plant response rating, Velvetleaf (velvetleaf; 13 to 15 days): 100
- Velvetleaf plant response rating (velvetleaf; [11]): 100
